Data from patent US9902761B2, “Polypeptides, nucleic acids and uses thereof” (AGENCY FOR SCIENCE, TECHNOLOGY AND RESEARCH, priority 2013, dated 2018).
Entries after “also recorded” stand apart in the source; their conditions may differ.

Legend:
hESCs [1] = experiment: FACS of stem cell surface markers SSEA3 and TRA-1-60 in hESCs; assay type: cell-based, human
hESCs [2] = experiment: insulin replacement assay in hESCs; assay type: cell-based, human
Method: For insulin replacement assays, SHEF4 or HESC3 hESCs were cultured in TSER-E5 (Stem Cell Technologies) supplemented with TGF-β (5 ng/ml, R&D Systems) and bFGF (100 ng/ml, Invitrogen) with and without INSULIN (10 ug/ml, SIGMA).

PI3K/AKT pathway = experiment: signaling pathway assay in starved hESCs pulsed with peptide (SDS-PAGE, western); assay type: cell-based, human
Method: To assay the signaling pathway activated by ELA, hESCs were dissociated and plated in mTSER1 for 48 hours, followed by a 2-hour starvation in DMEM/F12. Synthetically produced ELA or ELA^RR>GG peptides, dialyzed against PBS to remove any residual synthesis buffers, were added at a final concentration of 5 uM (or as indicate(D) for the indicated period of time. Where applicable, PI3K inhibitors LY294002 (5 uM) and Wortmannin (1 uM) were added 30 minutes before pulsing with ELA peptides. Cells were lysed with PhosphoSafe™ (Millipore) for SDS-PAGE.

hESCs [3] = experiment: survival of hESCs after single-cell dissociation (anoikis); assay type: cell-based, human; settings: with or without Y-27632
Method: (§1) hESCs were dissociated into single cells using Accutase (Stem Cell Technologies) and plated in the presence of 10 μM Y-27632 (ROCK inhibitor) for 12 hours (Watanabe et al., 2007).

hESCs [4] = experiment: qPCR of mesendodermal markers in hESCs; assay type: cell-based, human
Method: After the indicated time periods, embryoid bodies were harvested and RNA extracted using RNeasy kit ([…]). qPCR reactions were carried out using either Universal FastSlart SYBR Green Mastermix (Roche) or using the Universal Probe Library system (Roche) in tandem with Taqman Fast Mastermix (Invitrogen). Primer sequences can be found in Table E1.

[5] = system: primary human fibroblasts; experiment: growth and survival effect of recombinant ELA on primary fibroblasts; assay type: cell-based
Method: (§2) Primary human fibroblasts, SW1353 chondrosarcoma (ATCC) and NTERA2 hECs (a gift from Barbara Knowles and Davor Solter) were grown in Dulbecco's modified Eagle's medium (DMEM) with 10% FBS (Hyclone), 2 mM GlutaMAX™ (Invitrogen) and 1 mM sodium pyruvate. For xCELLigence real time growth assays, 4000 cells were plated per well of an E-plate (ACEA Biosciences) with media changes every 48 hours. […] Cell cycle studies were performed with Click-iT EDU staining kit (Invitrogen) and by performing a double thymidine block (2.5 mM thymidine; 16 hour block, 8 hour release, 16 hour block) followed by DAPI staining for DNA content at the indicated times following release.

hESCs [6] = experiment: xCELLigence real time growth assay, cell counts and colony size of hESCs; assay type: cell-based, human
Method: Feeder-free hESCs were cultured in clumps in mTSER1 (Stem Cell Technologies) on Matrigel (BD 354277).
as §1
For xCELLigence real time growth assays, 4000 cells were plated per well of an E-plate (ACEA Biosciences) with media changes every 48 hours.
Recombinant ELA was added at 2.5 uM (or 10 μg/ml). Cell cycle studies were performed with Click-iT EDU staining kit (Invitrogen) and by performing a double thymidine block (2.5 mM thymidine; 16 hour block, 8 hour release, 16 hour block) followed by DAPI staining for DNA content at the indicated times following release.

hECs = experiment: growth and survival effect of recombinant ELA on hECs; assay type: cell-based, human
Method: as §2

HIV-1 NL43 = experiment: HIV inhibition assay in P4C5 HeLa cells (β-gal activity); assay type: cell-based; settings: CXCR4-tropic strain
hESCs [7] = experiment: stress-induced apoptosis of hESCs by ionizing radiation; assay type: cell-based, human
[8] = pulmonary arterial hypertension, APELIN experiments repeated with ELABELA; settings: in vivo
Text: Am J Physiol Heart Circ Physiol 2009; 296:H2007-14.

[9] = hypertension, APELIN experiments repeated with ELABELA; settings: in vivo
Text: Regulatory Peptides. 2001; 99(2-3):87-92. • Cheng X, Cheng X S, Pang C C. […] European Journal of Pharmacology. […] Journal of the American College of Cardiology. 2008; 52(11):908-913.

PRAS40 = experiment: SILAC-based phosphoproteomic analysis of hESCs pulsed for 10 minutes; assay type: cell-based, human; settings: 10 minute pulse, 5 uM
[10] = heart failure, APELIN experiments repeated with ELABELA; settings: in vivo
Text: Nature 2012 Aug. […] J Clin Invest. 2013 Nov. 1.

[11] = coronary artery disease / myocardial infarction, APELIN experiments repeated with ELABELA; assay type: in vivo
Text: Peptides 2013; 46:76-82. • Li L, Zeng H, Chen J X. Apelin-13 increases myocardial progenitor cells and improves repair postmyocardial infarction. Am J Physiol Heart Cire Physiol 2012; 303:H605-18. • Pisarenko O I, Serebryakova L I, Pelogeykina Y A, et al. In vivo reduction of reperfusion injury to the heart with apelin-12 peptide in rats. Bull Exp Biol Med 2011; 152:79-82.

hESCs [12] = experiment: stress-induced apoptosis of hESCs by ActinomycinD; assay type: cell-based, human
Method: To induce apoptosis, hESCs were treated with the indicated doses of ActinomycinD (Sigma) or ionizing radiation followed by Aqueous One Cell Titer (Promega) or CASPASE GLO3/7 (Promega) assays 12 hours post-treatment.

[13] = system: human chondrosarcoma cell line; experiment: growth and survival effect of recombinant ELA on chondrosarcoma cells; assay type: cell-based
Method: as §2

CXCR4 = CXCR4 (Homo sapiens, UniProt P61073); experiment: ELA receptor binding assay (ELA-AP) on 293T cells transfected with receptor; design: 293T cells transfected with plasmids encoding full-length ORFs of putative receptors; expressed in transfected cells; host or cells: 293T; settings: ELA-AP conditioned medium, 3 hours
Method: Secreted ELA-Alkaline Phosphatase (ELA-AP) was produced by transfecting a construct encoding ELA-AP into 293T cells, as described previously (Chng et al., 2013). Conditioned medium from ELA-AP expressing cells was then incubated for 3 hours with 293T cells transfected with plasmids encoding full-length ORFs of putative receptors. Unbound ELA-AP was washed away and cells were lysed with 1% Triton-X/PBS. Lysates were cleared and incubated with an AP substrate BCIP/NBT at 37° C. for 15 minutes. Optical density was read at 495 nm, and the intensity of blue coloration is directly proportional to the affinity of ELA-AP to the over-expressed receptor.

[14] = 3 hours after 1 Gray of γ irradiation

Sequence of CXCR4 (P61073 whole entry): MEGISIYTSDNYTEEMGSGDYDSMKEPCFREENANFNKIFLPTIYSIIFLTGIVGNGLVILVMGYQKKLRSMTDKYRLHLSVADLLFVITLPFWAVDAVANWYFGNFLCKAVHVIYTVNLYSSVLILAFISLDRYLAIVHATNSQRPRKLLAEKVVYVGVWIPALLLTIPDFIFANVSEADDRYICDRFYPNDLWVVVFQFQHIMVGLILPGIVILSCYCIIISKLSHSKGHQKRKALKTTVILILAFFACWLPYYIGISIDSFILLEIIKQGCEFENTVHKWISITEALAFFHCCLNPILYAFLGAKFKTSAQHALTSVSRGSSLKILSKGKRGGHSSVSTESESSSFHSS

QRPVNLTMRRKLRKHNCLQRRCMPLHSRVPFP [ELA]
levels of cell surface markers SSEA3 and TRA-1-60 (hESCs [1]): unchanged levels | growth rescue of shELA hESCs under INSULIN deprivation (hESCs [2]): intermediate growth rescue | activation of ERK and SMAD2 (PI3K/AKT pathway): little to no activation of ERK and SMAD2 | activation of PI3K/AKT and mTORC1 pathway (p70S6K phosphorylation) (PI3K/AKT pathway): activates the PI3K/AKT pathway and subsequently the mTORC1 pathway | phosphorylation of AKT at serine 473 and PRAS40 at threonine 246 (PI3K/AKT pathway; 5 uM peptide after 2-hour starvation): sufficient to trigger the immediated phosphorylation of AKT at serine 473 | survival following dissociation (anoikis) (hESCs [3]): able to increase survival following dissociation | expression of mesendodermal genes GATA6, GATA4, FOXA2, EOMES and BRA (hESCs [4]): consistently upregulated | activity of recombinant ELA on primary human fibroblasts [5]: exerted activity only on hESCs cultures and no other differentiated cell types | rescue of the growth of shELA hESCs (hESCs [6]; addition of recombinant peptide to shELA hESCs): entirely rescued to normal levels | concentration range in which the recombinant peptide is bioactive (hESCs [6]; hESCs): bioactive only in the μM range; also recorded: works in the μM range | activity of recombinant ELA on hECs (hECs): exerted activity only on hESCs cultures and no other differentiated cell types | inhibition of infection with HIV-1 NL43 (HIV-1 NL43): inhibits infection | concentration at which ELA inhibits HIV (HIV-1 NL43; HeLa cells, B-Gal activity after 36-48 hrs of infection): 10 to 40 µM | rescue of the irradiation sensitivity of shELA hESCs (hESCs [7]): rescued this phenotype | activated CASPASE 3 after irradiation (hESCs [7]; [14]): almost undetectable | γH2AX foci after irradiation (hESCs [7]; [14]): comparable numbers of γH2AX foci | symptoms of pulmonary arterial hypertension [8]: alleviates symptoms of pulmonary arterial hypertension | blood pressure [9]: causes a reduction in blood pressure | phosphopeptide LNpTSDFQK derived from PRAS40 (PRAS40): Among the top phosphopeptides activated by ELA | protection against heart failure [10]: able to provide protection against heart failure | angiogenesis and cardiac repair postmyocardial infarction ([11]; in vivo): promote angiogenesis and ameliorate cardiac repair postmyocardial infarction | myocardial infarction size and damage to cardiomyocytes ([11]; injection): limit the myocardial infarction size and reduce damage to cardiomyocytes | activated CASPASE3/7 and CASPASE 9 after ActinomycinD (hESCs [12]): entirely suppressed | resistance or sensitivity to ActinomycinD (hESCs [12]; nanomolar concentrations of ActinomycinD): conferred significant resistance to control hESCs and completely rescued shELA hESCs | activity of recombinant ELA on human chondrosarcoma cell line [13]: exerted activity only on hESCs cultures and no other differentiated cell types | cell surface binding to CXCR4 (CXCR4): confers cell surface binding to ELA
